Experiment [1] concerns patients. As to the kind of experiment: Randomized open-label study: change in BMD by DEXA, bicalutamide 150 mg daily vs medical castration. The class given is in vivo, human. Particulars: for lumbar spine BMD increase compared to pre-treatment baseline: 150 mg. The method, then: Inclusion criteria for a prospective, multicentre, randomized, open-label, parallel-group study, included: disease stage T1-T4, Nx, and M0 for which immediate hormonal ablation was indicated; and Eastern Cooperative Oncology Group (ECOG) performance status 0 or 1.
Patients were randomized in a 1:1 ratio to receive either bicalutamide 150 mg daily or medical castration with a luteinizing hormone-releasing hormone (LHRH) agonist for 2 years.
Primary efficacy endpoints were percentage change from baseline in BMD measures (lumbar spine and hip) at 96 weeks.
An analysis of covariance (ANCOVA) model was used to analyse the primary efficacy endpoints. Analysis was performed for patients for whom data were available at baseline and at Week 96. Subsidiary analyses were performed, carrying forward the last patient assessment at time points where data were missing. A p value of ≦0.017 was considered statistically significant.
Secondary endpoints included: percentage change in lumbar spine-BMD and hip-BMD from baseline to 24, 48 and 72 weeks.
Secondary efficacy endpoints were also analyzed using an ANCOVA model. BMD were assessed via dual energy X-ray absorptiometry (DEXA).
103 patients were recruited to the study and randomized 1:1 to receive either bicalutamide (R/S racemate) 150 mg (n=51) or medical castration (n=52). • The treatment groups were well balanced at baseline (Table 1). • The median testosterone level at baseline was 414.7 ng/dL in the bicalutamide 150 mg group (n=48) and 477.9 ng/dL in the medical castration group (n=52). • Median baseline values for albumin, total calcium, 25-hydroxy vitamin D, and thyroid-stimulating hormone were similar in the two treatment groups. Bone Mineral Density

The next experiment concerns humans. To be noted: single agent therapy, blood; cited from earlier work.
The subject of experiment [2] is patients. Particulars: Casodex 150 monotherapy, preliminary data; cited from earlier work.
The test system of the next experiment is adult men. Particulars: cited from earlier work.

We go through 2 compounds from patent US20050288230A1, “Non-steroidal anti-androgen therapy” (AstraZeneca AB, priority 2002, published 2005).

As to `CC(O)(CS(=O)(=O)c1ccc(F)cc1)C(=O)Nc1ccc(C#N)c(C(F)(F)F)c1` (stereo not drawn) [Bicalutamide, 4′-cyano-α′,α′,α′-trifluoro-3-(4-fluorophenylsulphonyl)-2-hydroxy-2-methylpropiono-m-toluidide], the results for the “lumbar spine BMD increase compared to pre-treatment baseline” value with patients [1] (24 weeks), with patients [1] (48 weeks) and in the experiment with patients [1] (72 weeks) were 1.05%, 1.76% and 2.22%, respectively. In addition, the “BMD compared to baseline (in words)” value in the experiment on patients [1] (in vivo) is listed as “statistically significant increase in BMD compared to baseline”. In addition, in the experiment on humans, the “basal level of total testosterone” value is given as “approximate doubling”. The “bone mineral density (in words)” value in the experiment with patients [2] is given as “maintains bone mineral density”.
Take `CC/C(=C(\c1ccccc1)c1ccc(OCCN(C)C)cc1)c1ccccc1` [tamoxifen]: in the experiment with adult men, the “testosterone and LH (in words)” value was “increase testosterone and LH”.
